# Measured values reported in patent publication US20050222127A1, “Use of Rho kinase inhibitors in the treatment of hearing loss, tinnitus and improving body balance” (Alcon, Inc., priority 2004, published 2005).
# Target: T1, Human recombinant Rho kinase (ROKα/ROCK-II, aa 11-552) (Homo sapiens, UniProt O75116)
# T1 construct: ROKα/ROCK-II, (aa 11-552), human active, catalog #14-451; purchased Upstate Biotechnology Co., Lake Placid, N.Y. 14-451
# Test: [γ-33P]-ATP-based Rho kinase assay
# Type: biochemical
# Conditions: mean ± SEM; 100 μM ATP, Long S6 substrate peptide 30 μM, 30 min at 30° C.; read-out: Rho Kinase Inhibition Constants (IC50), [γ-33P]-ATP-Based Assay
# Procedure: (§1) Rho kinase activity and inhibition of activity by test compounds in vitro is carried out using a radioactive assay or a fluorescence polarization assay as described herein.
# The enzyme assays are performed using a Biomek 2000 Robotic Workstation (Beckman Instruments, Palo Alto, Calif.) in a 96-well format using [γ-^33P]-ATP (Perkin-Elmer Life Sciences, Boston, Mass.). Stock [γ-^33P] ATP (3000 Ci/mmol) is diluted to 1 μCi/μl with the MgCl2/ATP cocktail solution. The concentrations of MgCl2/ATP used are 15 mM and 100 μM, respectively. […] The substrate and enzyme are diluted in 20 mM MOPS buffer (pH 7.2), 25 mM β-glycerol phosphate, 5 mM EGTA, 1.0 mM sodium orthovanadate, and 1.0 mM DTT. Test compound dilutions are made in 10:10 dimethyl sulfoxide-ethanol (vol/vol). In the following order, substrate, enzyme, test compound dilution, and [γ-33P]-ATP are added to the 96-well plates for a final volume of 100 μl per well. […] The radioactivity captured on the filter mats is then determined on a beta-counter.
# T1 sequence (O75116 11-552): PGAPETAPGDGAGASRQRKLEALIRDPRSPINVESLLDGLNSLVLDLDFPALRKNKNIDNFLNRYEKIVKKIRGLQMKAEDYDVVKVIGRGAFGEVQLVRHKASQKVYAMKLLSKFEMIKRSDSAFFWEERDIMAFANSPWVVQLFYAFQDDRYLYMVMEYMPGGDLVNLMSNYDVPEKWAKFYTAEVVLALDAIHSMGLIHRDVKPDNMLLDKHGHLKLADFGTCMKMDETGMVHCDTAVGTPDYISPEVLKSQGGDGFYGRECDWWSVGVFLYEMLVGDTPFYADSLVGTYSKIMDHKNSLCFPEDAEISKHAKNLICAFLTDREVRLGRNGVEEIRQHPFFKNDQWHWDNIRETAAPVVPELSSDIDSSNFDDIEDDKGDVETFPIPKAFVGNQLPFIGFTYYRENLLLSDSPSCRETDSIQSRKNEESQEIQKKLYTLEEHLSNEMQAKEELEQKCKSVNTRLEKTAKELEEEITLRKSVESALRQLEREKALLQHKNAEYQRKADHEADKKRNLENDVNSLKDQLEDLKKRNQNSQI
row,SMILES,IC50 [µM]
1,"CC1CN(S(=O)(=O)c2cccc3cnccc23)CCN1 (centres unmarked) [I, reference compound]",6.7 ± 0.9
2,Cc1cncc2cccc(S(=O)(=O)N3CCNC(C)C3)c12 (centres unmarked) [G],2.63 ± 0.307
3,Cc1cncc2cccc(S(=O)(=O)N3CCCN(C)CC3C)c12 (centres unmarked) [E],0.485 ± 0.207
4,Cc1cncc2cccc(S(=O)(=O)N3CCCN(C)C(C)C3)c12 (centres unmarked) [D],3.46 ± 1.8
5,"CC1CNCCN1S(=O)(=O)c1cccc2cnccc12 (centres unmarked) [B, reference compound]",2.34 ± 0.395
6,Cc1cncc2cccc(S(=O)(=O)N3CCCNC(C)(C)C3)c12 [F],1.51 ± 0.704

# Target: T2, Rho kinase (ROCK II) (Homo sapiens, UniProt O75116)
# T2 construct: purchased Molecular Devices, Sunnyvale, Calif
# T2 sequence (O75116 whole entry, species assumed): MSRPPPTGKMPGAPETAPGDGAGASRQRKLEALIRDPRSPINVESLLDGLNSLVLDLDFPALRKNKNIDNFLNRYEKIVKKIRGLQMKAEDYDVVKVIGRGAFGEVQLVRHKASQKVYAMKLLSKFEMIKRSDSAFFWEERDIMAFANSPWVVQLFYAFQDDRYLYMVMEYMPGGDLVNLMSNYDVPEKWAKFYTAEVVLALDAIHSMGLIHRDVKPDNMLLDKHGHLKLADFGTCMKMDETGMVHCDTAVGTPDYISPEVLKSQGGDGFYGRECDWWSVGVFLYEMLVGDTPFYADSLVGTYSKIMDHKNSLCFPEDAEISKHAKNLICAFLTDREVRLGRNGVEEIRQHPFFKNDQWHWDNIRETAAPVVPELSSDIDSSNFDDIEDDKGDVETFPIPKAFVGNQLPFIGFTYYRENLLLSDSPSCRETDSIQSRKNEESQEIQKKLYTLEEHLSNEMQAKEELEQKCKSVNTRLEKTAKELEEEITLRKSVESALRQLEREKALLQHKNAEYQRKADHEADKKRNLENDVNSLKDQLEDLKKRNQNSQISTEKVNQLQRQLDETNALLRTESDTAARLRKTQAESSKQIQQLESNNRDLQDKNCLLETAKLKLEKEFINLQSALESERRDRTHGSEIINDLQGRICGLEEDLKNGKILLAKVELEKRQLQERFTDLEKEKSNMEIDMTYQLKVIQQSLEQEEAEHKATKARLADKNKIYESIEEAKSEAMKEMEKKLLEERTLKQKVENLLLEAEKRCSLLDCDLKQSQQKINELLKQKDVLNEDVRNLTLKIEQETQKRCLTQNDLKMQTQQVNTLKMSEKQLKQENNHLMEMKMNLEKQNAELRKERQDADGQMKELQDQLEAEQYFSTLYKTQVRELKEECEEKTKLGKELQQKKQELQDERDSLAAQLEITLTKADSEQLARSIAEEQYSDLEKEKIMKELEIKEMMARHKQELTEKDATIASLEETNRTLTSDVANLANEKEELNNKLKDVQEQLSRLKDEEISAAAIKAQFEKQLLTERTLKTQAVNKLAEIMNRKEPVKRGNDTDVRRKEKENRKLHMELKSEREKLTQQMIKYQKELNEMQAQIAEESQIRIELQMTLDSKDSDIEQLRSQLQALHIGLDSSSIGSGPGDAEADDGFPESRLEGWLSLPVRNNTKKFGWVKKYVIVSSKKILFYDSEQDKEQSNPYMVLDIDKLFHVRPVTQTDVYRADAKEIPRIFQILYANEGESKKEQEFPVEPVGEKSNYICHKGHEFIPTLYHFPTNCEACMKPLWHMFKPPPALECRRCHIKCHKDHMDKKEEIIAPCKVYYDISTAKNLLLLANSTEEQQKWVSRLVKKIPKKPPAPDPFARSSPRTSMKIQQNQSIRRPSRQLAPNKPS
# Test: IMAP fluorescence polarization Rho kinase assay (IMAP ROCK II kit)
# Type: biochemical
# Conditions: mean ± SEM; 10 μM ATP, substrate 200 nM, 60 min at 23° C.; read-out: Rho Kinase Inhibition Constants (IC50), IMAP Fluorescence Polarization-Based Assay
# Procedure: as §1
# The fluorescence polarization assays are performed using a Biomek 2000 Robotic Workstation (Beckman Instruments, Palo Alto, Calif.) in a 96-well plate format. The assay is performed utilizing the IMAP ROCK II kit (Molecular Devices, Sunnyvale, Calif.) as follows. […] The substrate, enzyme, and ATP dilutions are made with the reaction buffer provided by the vendor. Test compounds are diluted in 10:10 DMSO-ethanol (vol/vol). For the actual assay, the various components are added into black, clear bottom, 96-well plates (Costar, Corning, N.Y.) in a final volume of 20 μl per well. After the enzyme reaction (60 min at 23° C.), 60 μl of the binding solution (IMAP kit provided by vendor) is added per well and incubated for an additional 30 minutes in the dark at 23° C. Fluorescence polarization of the reaction mixtures is then measured on the Analyst™ HT instrument (Molecular Devices, Sunnyvale, Calif.). The data are then analyzed using a non-linear, iterative, sigmoidal-fit computer program purchased from IDBS (Emeryville, Calif.) and as previously described (Sharif et al., ibid.) to generate the inhibition constants for the test compounds.
row,SMILES,IC50 [µM]
1,Cc1cncc2cccc(S(=O)(=O)N3CCNC(C)C3)c12 (centres unmarked) [G],2.39 ± 1.26
2,Cc1cncc2cccc(S(=O)(=O)N3CCCN(C)CC3C)c12 (centres unmarked) [E],0.108 ± 0.053
3,Cc1cncc2cccc(S(=O)(=O)N3CCCN(C)C(C)C3)c12 (centres unmarked) [D],0.27 ± 0.113
4,"CC1CNCCN1S(=O)(=O)c1cccc2cnccc12 (centres unmarked) [B, reference compound]",0.913 ± 0.644
5,Cc1cncc2cccc(S(=O)(=O)N3CCCNC(C)(C)C3)c12 [F],2.01 ± 0.085
